Measurements reported in PubChem BioAssay AID330 (DTP/NCI, 2004).
Values joined by “and” are separate entries in the source; they are usually repeats but may differ in a detail not shown here. Identical values can stand only once. Toxic doses and inconclusive results are not listed.

Test system: P388 leukemia ip, CD2F1 mice, survival T/C
Assay: NCI In Vivo Anticancer Drug Screen. Data for tumor model P388 Leukemia (intraperitoneal) in CD2F1 (CDF1) mice
Details: endpoint: median survival time, higher = longer survival
Procedure, shortened: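 Mice carrying the transplanted tumor received test compound or vehicle. Survival was recorded in each group, and the value is the treated-group measurement divided by that of the vehicle-treated control group.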

[1] = dose: 12.5 mg/kg/injection, schedule: Q01DX009 (ip), vehicle: saline with Tween-80
[2] = dose: 25.0 mg/kg/injection, schedule: Q01DX009 (ip), vehicle: saline with Tween-80
[3] = dose: 50.0 mg/kg/injection, schedule: Q01DX009 (ip), vehicle: other
[4] = dose: 50.0 mg/kg/injection, schedule: Q01DX009 (ip), vehicle: saline with Tween-80
[5] = dose: 50.0 mg/kg/injection, schedule: Q01DX009 (ip), vehicle: suspension in saline
[6] = dose: 100.0 mg/kg/injection, schedule: Q01DX009 (ip), vehicle: suspension in saline
[7] = dose: 100.0 mg/kg/injection, schedule: Q01DX009 (ip), vehicle: saline
[8] = dose: 400.0 mg/kg/injection, schedule: Q01DX009 (ip), vehicle: saline
[9] = dose: 50.0 mg/kg/injection, schedule: Q01DX005 (ip), vehicle: saline with Tween-80
[10] = dose: 50.0 mg/kg/injection, schedule: Q01DX005 (ip), vehicle: saline
[11] = dose: 25.0 mg/kg/injection, schedule: Q04DX003 (ip), vehicle: saline with Tween-80
[12] = dose: 50.0 mg/kg/injection, schedule: Q04DX003 (ip), vehicle: saline with Tween-80

## Cn1/c2cc/c1=C(\c1ccccc1)c1ccc([n-]1)/C(c1ccccc1)=c1/cc/c([nH]1)=C(\c1ccccc1)c1ccc([n-]1)/C=2c1ccccc1.O.O=S(=O)(O)C(F)(F)F.[Cu+2]
[1]
  T/C: 102 % of control
[2]
  T/C: 91 % of control
[3]
  T/C: 88 % of control
[4]
  T/C: 91 % of control

## COc1ccc(NC(=O)c2cc3c(cc2Br)OCO3)cc1
dose: 12.5 mg/kg/injection, schedule: Q01DX009 (ip), vehicle: other
  T/C: 102 % of control
dose: 25.0 mg/kg/injection, schedule: Q01DX009 (ip), vehicle: other
  T/C: 96 % of control
[3]
  T/C: 100 % of control
dose: 100.0 mg/kg/injection, schedule: Q01DX009 (ip), vehicle: other
  T/C: 93 % of control
dose: 200.0 mg/kg/injection, schedule: Q01DX009 (ip), vehicle: other
  T/C: 99 % of control
dose: 400.0 mg/kg/injection, schedule: Q01DX009 (ip), vehicle: other
  T/C: 89 % of control

## COC(=O)C(F)C(Br)C(=O)OC (centres undefined)
[1]
  T/C: 111 % of control and 103 % of control
[2]
  T/C: 112 % of control and 105 % of control
[4]
  T/C: 123 % of control and 114 % of control and 115 % of control

## CC(C)(C)N=C(CCN1CCN(CCC(=NC(C)(C)C)Nc2c(Cl)cccc2Cl)CC1)Nc1c(Cl)cccc1Cl
dose: 50.0 mg/kg/injection, schedule: Q01DX009 (ip), vehicle: Klucel (hydroxypropylcellulose) (HPC)
  T/C: 96 % of control
dose: 100.0 mg/kg/injection, schedule: Q01DX009 (ip), vehicle: Klucel (hydroxypropylcellulose) (HPC)
  T/C: 95 % of control
dose: 200.0 mg/kg/injection, schedule: Q01DX009 (ip), vehicle: Klucel (hydroxypropylcellulose) (HPC)
  T/C: 92 % of control

## C[N+](C)(C)/C=C/c1ccc([N+](=O)[O-])o1
[5]
  T/C: 100 % of control
[6]
  T/C: 96 % of control

## CC(=O)Oc1c(C)c(C)c(OC(C)=O)c(OC(C)=O)c1C
dose: 100.0 mg/kg/injection, schedule: Q04DX002 (ip), vehicle: Klucel (hydroxypropylcellulose) (HPC)
  T/C: 93 % of control
dose: 200.0 mg/kg/injection, schedule: Q04DX002 (ip), vehicle: Klucel (hydroxypropylcellulose) (HPC)
  T/C: 96 % of control
dose: 400.0 mg/kg/injection, schedule: Q04DX002 (ip), vehicle: Klucel (hydroxypropylcellulose) (HPC)
  T/C: 90 % of control

## Cc1ccccc1N(C=O)c1ccccc1C
[7]
  T/C: 106 % of control
dose: 200.0 mg/kg/injection, schedule: Q01DX009 (ip), vehicle: saline
  T/C: 93 % of control
[8]
  T/C: 98 % of control

## CC(=O)OC1C2OC3C=C(C)CCC3(CO)C(C)(C1O)C21CO1 (centres undefined)
dose: 0.5 mg/kg/injection, schedule: Q01DX009 (ip), vehicle: saline
  T/C: 95 % of control
dose: 1.0 mg/kg/injection, schedule: Q01DX009 (ip), vehicle: saline
  T/C: 96 % of control
dose: 2.0 mg/kg/injection, schedule: Q01DX009 (ip), vehicle: saline
  T/C: 106 % of control
dose: 4.0 mg/kg/injection, schedule: Q01DX009 (ip), vehicle: saline
  T/C: 112 % of control

## O=[N+]([O-])c1cccc(/C=C/S(=O)(=O)Cc2ccccc2)c1
[9]
  T/C: 101 % of control
dose: 100.0 mg/kg/injection, schedule: Q01DX005 (ip), vehicle: saline with Tween-80
  T/C: 100 % of control
dose: 200.0 mg/kg/injection, schedule: Q01DX005 (ip), vehicle: saline with Tween-80
  T/C: 92 % of control

## O=C(NCSC1=NCCS1)NCSC1=NCCS1
[5]
  T/C: 101 % of control and 103 % of control
[7]
  T/C: 91 % of control
[6]
  T/C: 100 % of control and 93 % of control
dose: 200.0 mg/kg/injection, schedule: Q01DX009 (ip), vehicle: suspension in saline
  T/C: 100 % of control and 105 % of control
[8]
  T/C: 94 % of control
dose: 400.0 mg/kg/injection, schedule: Q01DX009 (ip), vehicle: suspension in saline
  T/C: 101 % of control and 98 % of control

## O=C(O)C(=O)O.O=C([O-])C(=O)[O-].O=C([O-])C(=O)[O-].[NH-]CC[NH-].[NH-]CC[NH-].[NH-]CC[NH-].[Ru+4].[Ru+5]
dose: 25.0 mg/kg/injection, schedule: Q04DX003 (ip), vehicle: water
  T/C: 117 % of control
dose: 50.0 mg/kg/injection, schedule: Q04DX003 (ip), vehicle: water
  T/C: 151 % of control

## O=C(NC1CCCCC1)O/N=C/c1ccc2c(c1)OCO2
[4]
  T/C: 93 % of control
dose: 100.0 mg/kg/injection, schedule: Q01DX009 (ip), vehicle: saline with Tween-80
  T/C: 86 % of control
dose: 200.0 mg/kg/injection, schedule: Q01DX009 (ip), vehicle: saline with Tween-80
  T/C: 86 % of control

## OCc1nccn1Cc1ccccc1
dose: 50.0 mg/kg/injection, schedule: Q01DX001 (ip), vehicle: saline
  T/C: 115 % of control
dose: 100.0 mg/kg/injection, schedule: Q01DX001 (ip), vehicle: saline
  T/C: 95 % of control

## Nc1cc2nnc(-c3ccccc3)c(-c3ccccc3)n2n1
dose: 25.0 mg/kg/injection, schedule: Q04DX002 (ip), vehicle: saline with Tween-80
  T/C: 91 % of control
dose: 50.0 mg/kg/injection, schedule: Q04DX002 (ip), vehicle: saline with Tween-80
  T/C: 86 % of control

## CCN(CC)CCNN
[10]
  T/C: 100 % of control
dose: 100.0 mg/kg/injection, schedule: Q01DX005 (ip), vehicle: saline
  T/C: 100 % of control
dose: 200.0 mg/kg/injection, schedule: Q01DX005 (ip), vehicle: saline
  T/C: 103 % of control

## Nc1nc(N)c2nc(Sc3ccc(Cl)cc3)c(-c3ccccc3)nc2n1
[11]
  T/C: 95 % of control
[12]
  T/C: 91 % of control
dose: 100.0 mg/kg/injection, schedule: Q04DX003 (ip), vehicle: saline with Tween-80
  T/C: 93 % of control

## CC[C@@H](C)C(=O)O[C@H]1[C@H](O)[C@H]2[C@@H](CN3C[C@@H](C)CC[C@H]3[C@@]2(C)O)[C@@H]2CC34O[C@]5(O)[C@@H](OC(=O)[C@@](C)(O)CC)CC[C@@]3(C)[C@@H]5[C@@H](OC(C)=O)[C@@H](OC(C)=O)[C@H]4[C@@]21O
dose: 0.1 mg/kg/injection, schedule: Q01DX005 (ip), vehicle: saline
  T/C: 102 % of control
dose: 0.4 mg/kg/injection, schedule: Q01DX005 (ip), vehicle: saline with Tween-80
  T/C: 100 % of control
dose: 25.0 micrograms/kg/injection, schedule: Q01DX005 (ip), vehicle: saline
  T/C: 97 % of control
dose: 50.0 micrograms/kg/injection, schedule: Q01DX005 (ip), vehicle: saline
  T/C: 94 % of control
dose: 100.0 micrograms/kg/injection, schedule: Q01DX005 (ip), vehicle: saline
  T/C: 94 % of control

## CC(C)(C)CC(C)(C)c1ccc(O)cc1O
dose: 12.5 mg/kg/injection, schedule: Q04DX003 (ip), vehicle: saline with Tween-80
  T/C: 110 % of control
[11]
  T/C: 105 % of control
[12]
  T/C: 120 % of control

## COC(=O)CCP(CCC(=O)OC)c1ccccc1
dose: 60.0 mg/kg/injection, schedule: Q01DX005 (ip), vehicle: saline with Tween-80
  T/C: 99 % of control
dose: 120.0 mg/kg/injection, schedule: Q01DX005 (ip), vehicle: saline with Tween-80
  T/C: 99 % of control
dose: 240.0 mg/kg/injection, schedule: Q01DX005 (ip), vehicle: saline with Tween-80
  T/C: 103 % of control

## CCCCCC(=N\N=C(N)N)/C(C)=N/N=C(N)N
dose: 12.5 mg/kg/injection, schedule: Q01DX005 (ip), vehicle: saline with Tween-80
  T/C: 98 % of control
dose: 25.0 mg/kg/injection, schedule: Q01DX005 (ip), vehicle: saline with Tween-80
  T/C: 97 % of control
[9]
  T/C: 101 % of control
[10]
  T/C: 100 % of control

## CCCC1CC[N-]CC1.CCCC1CC[N-]CC1.[Cl][Pt+2]([Cl])([Cl])[Cl]
dose: 1.0 mg/kg/injection, schedule: Q01DX009 (ip), vehicle: saline with Tween-80
  T/C: 90 % of control
dose: 2.0 mg/kg/injection, schedule: Q01DX009 (ip), vehicle: saline with Tween-80
  T/C: 95 % of control
dose: 3.75 mg/kg/injection, schedule: Q01DX009 (ip), vehicle: saline with Tween-80
  T/C: 100 % of control
dose: 4.0 mg/kg/injection, schedule: Q01DX009 (ip), vehicle: saline with Tween-80
  T/C: 100 % of control
dose: 11.0 mg/kg/injection, schedule: Q01DX009 (ip), vehicle: saline with Tween-80
  T/C: 118 % of control
[11]
  T/C: 110 % of control
dose: 37.5 mg/kg/injection, schedule: Q01DX009 (ip), vehicle: saline with Tween-80
  T/C: 118 % of control
[12]
  T/C: 120 % of control
dose: 75.0 mg/kg/injection, schedule: Q04DX003 (ip), vehicle: saline with Tween-80
  T/C: 95 % of control

## COC(=O)NC1=Nc2ccccc2N(C(=O)C(C)C)S1
dose: 50.0 mg/kg/injection, schedule: Q01DX005 (ip), vehicle: Klucel (hydroxypropylcellulose) (HPC)
  T/C: 100 % of control
dose: 100.0 mg/kg/injection, schedule: Q01DX005 (ip), vehicle: Klucel (hydroxypropylcellulose) (HPC)
  T/C: 101 % of control
dose: 200.0 mg/kg/injection, schedule: Q01DX005 (ip), vehicle: Klucel (hydroxypropylcellulose) (HPC)
  T/C: 97 % of control
